We go through five substances from US10688194B2, “Cell penetrating peptides for intracellular delivery of molecules” (AADIGEN, LLC, priority 2012, dated 2020).

Where two headings read alike, the source gives them in different places. Ends that are not written are not given here. {Cy5} = cyanine 5 fluorescent label

The test system of one series is Cyclin B1. Nature of the series: VEPEP-3 mediated delivery of antisense PNA, Cyclin B1 protein level. Format: cell-based. The following applies: different cultured cells. The source says: VEPEP-3 peptides have been used for the delivery of nucleic acid analogues (PNA and morpholino) into different cell lines, including primary cell lines and challenging cell lines. […] We have applied VEPEP-3 strategy for the delivery of PNA antisense targeting Cyclin B1 as previously described (Morris et al, 2007).

The subject of series [1] is Hela. Type of series: cell-based. The method, then: (§1) Adherent HS68 fibroblasts, HeLa, PC3, MCF-7, SCK3-Her2, PBMC cell lines (from American Type Culture Collection (ATCC)) were cultured in Dulbecco's Modified Eagle's Medium supplemented with 2 mM glutamine, 1% antibiotics (streptomycin 10,000 μg/ml, penicillin, 10,000 IU/ml) and 10% (w/v) foetal calf serum (FCS), at 37° C. in a humidified atmosphere containing 5% CO2. Stock solutions of VEPEP-3/peptide particles were prepared by complexing 1 μM peptide with VEPEP-3 peptides at a molar ratio of 1/20 for 30 min at 37° C. Lower concentrations of VEPEP-3-carrier/peptide (from 500 nM to 1 μM) were obtained by serial dilution of the stock complexes in PBS, in order to preserve the same VEPEP-3-carrier/peptide ratio. 150,000 cells seeded in a 35 mm dish the day prior transfection, were grown to 60% confluence and overlaid with 200 μl of preformed complexes, incubated for 3-5 min, then 400 μl of DMEM were added. After 30 min. incubation at 37° C., 1 ml of fresh DMEM containing 16% foetal calf serum (FCS) was added in order to reach a final FCS concentration of 10%, without removing the overlay of VEPEP-3/peptide complexes. Cells were returned to the incubator for 24 hrs. For cdk4 and CDK2 derived peptides cell proliferation was monitored after 24 and 48 hrs. For peptide-targeting integrase, HIV proliferation was analyzed on activated PBMC cells after 3 and 5 days. […]

In series [2] the test system is Hela, MCF7, HEK-2, HS-68 and U2OS cells. The series is described as follows: Cell proliferation after VEPEP-3 mediated delivery of C2/C4, several lines. Format: cell-based. The following applies: delivered by VEPEP-3. The method, then: as §1
The next series relates to HEK-2. Format: cell-based. As for the experimental part: (§2) Adherent HS68 fibroblasts, HeLa, PC3, MCF-7, SCK3-Her2, PBMC cell lines (from American Type Culture Collection (ATCC)) were cultured in Dulbecco's Modified Eagle's Medium supplemented with 2 mM glutamine, 1% antibiotics (streptomycin 10,000 μg/ml, penicillin, 10,000 IU/ml) and 10% (w/v) foetal calf serum (FCS), at 37° C. in a humidified atmosphere containing 5% CO2. Stock solutions of VEPEP-3/peptide particles were prepared by complexing 1 μM peptide with VEPEP-3 peptides at a molar ratio of 1/20 for 30 min at 37° C. Lower concentrations of VEPEP-3-carrier/peptide (from 500 nM to […]) were obtained by serial dilution of the stock complexes in PBS, in order to preserve the same VEPEP-3-carrier/peptide ratio. 150,000 cells seeded in a 35 mm dish the day prior transfection, were grown to 60% confluence and overlaid with 200 μl of preformed complexes, incubated for 3-5 min, then 400 μl of DMEM were added. After 30 min. incubation at 37° C., 1 ml of fresh DMEM containing 16% foetal calf serum (FCS) was added in order to reach a final FCS concentration of 10%, without removing the overlay of VEPEP-3/peptide complexes. Cells were returned to the incubator for 24 hrs. For cdk4 and CDK2 derived peptides cell proliferation was monitored after 24 and 48 hrs. For peptide-targeting integrase, HIV proliferation was analyzed on activated PBMC cells after 3 and 5 days. Data reported are an average of 3 or 4 distinct experiments.
(§3) A peptide C2 or C4 concentration of 200 nM was sufficient to block proliferation of Hela, MCF7, HEK-2, HS-68 and U2OS cells.

For series [3], the system named is Hela. Format: cell-based. The method, then:
as §2, §3
This is another data set of the same source.

In another series the test system is MCF7. Type of series: cell-based. As for the experimental part:
as §2, §3

Another series deals with MDA_MB cells. Format: cell-based.
Series [4] deals with Hela, MCF7, HEK-2, HS-68, and U2OS cells. Nature of the series: Cell cycle progression, controls. Type of series: cell-based.
Another series concerns protein (GFP & Nanobody). Nature of the series: Fluorescence titration, VEPEP-3/cargo binding: protein. The following applies: cargo: protein (GFP & Nanobody). As for the experimental part:
(§4) Fluorescence experiments were performed on a PTI spectrofluorimeter at 25° C. in a NaCl 154 mM buffer. Intrinsic Trp-fluorescence of VEPEP-3 was excited at 290 nm and emission spectrum was recorded between 310 and 400 nm, with a spectral band-pass of 2 and 8 nm for excitation and emission, respectively. FITC-fluorescence of labelled-peptide was excited at 492 nm and emission recorded between 500 and 580 nm. For VEPEP-3/peptide interaction, 0.5 μM of FITC-labelled peptide was titrated by increasing concentrations of VEPEP-3. All measurements were corrected for the dilution and curve fitting were performed by using Grafit software (Erithacus).
(§5) VEPEP-3 peptide form stable complexes with peptides and proteins. The binding of cargos to VEPEP-3 was monitored by fluorescence spectroscopy using the […] intrinsic Trp groups of VEPEP-3 (3 to 5 Trp-residues) and extrinsic fluorescently labelled cargoes (using Cy3, Cy5 or FITC). Curve fitting reveal that VEPEP-3 strongly binds the different cargoes with dissociation constant in the nanomolar range (examples with VEPEP-3a, VEPEP-3C, and VEPEP-3g and three different cargoes are reported in FIGS. 1A-1C, all the data are reported in Table 1).

Series [5] is described as follows: Fluorescence titration, VEPEP-3/cargo binding: small hydrophobic molecule. The following applies: cargo: Doxorubicine. The method, then: as §4
(§6) VEPEP-3 peptides also form stable particles with small aromatic molecules including Daunomycin, Paclitaxel, doxorubicin, porphyrin and charged molecules including nucleotide, nucleoside and peptide-analog of nucleic acids or fluorescent dyes (FIGS. 1A-1C). The dissociation constant for small hydrophobic molecule ranges between 0.05 to 2 μM, depending on the nature of the dyes and of the peptides.

A further series deals with Peptide (C4 and C2). The series is described as follows: Fluorescence titration, VEPEP-3/cargo binding: peptide. The method, then: as §4, §5
The next series has as its system PNA (15 mer-PNA). The series is described as follows: Fluorescence titration, VEPEP-3/cargo binding: PNA. The following applies: cargo: 15 mer-PNA. As for the experimental part:
as §4, §6

The subject of a further series is Cyclic peptide (PC4). Nature of the series: Fluorescence titration, VEPEP-3/cargo binding: cyclic peptide. The following applies: cargo: Cyclic peptide (PC4). The method, then:
as §4, §5

“TGC CAT CGG GCT TGG AGG-CY5 (antisense TGCCATCGGGCTTGGAGG; 3' {Cy5}, sugars by position and backbone not given here; further chemistry not fully specified) [PNA (Cyclin B1)]”: the “downregulation of Cyclin B1 protein level” value in the series with Cyclin B1 was “higher than 70%”.

For orientation: IC50 means the midpoint of a concentration-inhibition curve. A high value points to weaker potency in that assay. Turning to KKQVLAMEHLVT [C2, KKQVLAMEHLVT], the half-maximal inhibitory concentration (IC50) in the series on Hela [1] stood at 36 ± 21 nM; with HEK-2, 102 ± 24 nM; in the series with Hela [3] it was 37 ± 15 nM; in the series with MCF7, 67 ± 15 nM; with MDA_MB cells it was 46 ± 14 nM. Further, the “peptide concentration sufficient to block proliferation” value in series [2] is recorded as 200 nM.

As to KKQVRMAHLVLT [C4, KKQVRMAHLVLT], the IC50 in the series on Hela [1] is 36 ± 21 nM; in the series on HEK-2, 78 ± 10 nM; in the series with Hela [3], 35 ± 12 nM; with MCF7, 58 ± 6 nM; in the series on MDA_MB cells, 46 ± 14 nM. In addition, in series [2], the “peptide concentration sufficient to block proliferation” value was found to be 200 nM.

For the substance “VTLMEAKKQVLT (HELM PEPTIDE1{[ac].V.T.L.M.E.A.K.K.Q.V.L.T.[SCCN[*:1]]}$$$$V2.0; SMILES CSCC[C@H](NC(=O)[C@H](CC(C)C)NC(=O)[C@@H](NC(=O)[C@@H](NC(C)=O)C(C)C)[C@@H](C)O)C(=O)N[C@@H](CCC(=O)O)C(=O)N[C@@H](C)C(=O)N[C@@H](CCCCN)C(=O)N[C@@H](CCCCN)C(=O)N[C@@H](CCC(N)=O)C(=O)N[C@H](C(=O)N[C@@H](CC(C)C)C(=O)N[C@H](C(=O)NCCS)[C@@H](C)O)C(C)C) [scrambled C2, reference compound]”, the “effect on cell cycle progression” value in [4] (500 nM, complexed with VEPEP-3a at a 20/1 ratio) is recorded as “no effect”.

The term Kd denotes a measure of binding affinity in units of concentration. As for X1KWFERWFREWPRKRR [VEPEP-3a], in series [4] (carrier alone (200 μM)), the “effect on cell cycle progression” value is “no effect”. Besides, in the series with protein (GFP & Nanobody), the “Binding, Protein” value is on record as “Yes” and the affinity, expressed as Kd, was 1000 nM. For the same substance, the “Binding, SHM” value in [5] was “Yes”. For the same substance, in [5] (read-out: Kd, SHM), the Kd worked out at 1000 nM. Also, in the series with Peptide (C4 and C2), the “Binding, peptide” value is “yes” and the Kd lay within 10 to 20 nM. In the series on PNA (15 mer-PNA), the “Binding, PNA” value was “Yes” and the Kd worked out at 100 nM. The “Binding, Cyclic peptide” value in the series with Cyclic peptide (PC4) is “yes”.
